The text below walks through data of ChEMBL document CHEMBL3045645, “Organophosphorus derivatives containing isatin-3-hydrazones as chemotherapeutants against fungal pathogens of sugarcane” (2008).

≈ marks a conversion by molar mass, not a printed value.

Format in all cases: functional
Assay [1] relates to Curvularia pallescens. Briefly: Antifungal activity against Cochliobolus pallescens assessed as mycelial growth inhibition at 10 ppm at 28 +/-2 degC after 7 days by food poison technique. As to conditions: 168 h, read-out: GI.
The test system of assay [2] is Fusarium oxysporum. In words: Antifungal activity against Fusarium oxysporum assessed as mycelial growth inhibition at 10 ppm at 28 +/-2 degC after 7 days by food poison technique. The note with it: 168 h, read-out: GI.
Assay [3] relates to Curvularia pallescens. Briefly: Antifungal activity against Cochliobolus pallescens assessed as mycelial growth inhibition at 1000 ppm at 28 +/-2 degC after 7 days by food poison technique. The note with it: 168 h, read-out: GI.
In assay [4] the test system is Fusarium oxysporum. Briefly: Antifungal activity against Fusarium oxysporum assessed as mycelial growth inhibition at 100 ppm at 28 +/-2 degC after 7 days by food poison technique. The note with it: 168 h, read-out: GI.
For assay [5], the system named is Colletotrichum falcatum. Briefly: Antifungal activity against Glomerella tucumanensis assessed as mycelial growth inhibition at 10 ppm at 28 +/-2 degC after 7 days by food poison technique. As to conditions: 168 h, read-out: GI.
Assay [6] relates to Colletotrichum falcatum. Briefly: Antifungal activity against Glomerella tucumanensis assessed as mycelial growth inhibition at 1000 ppm at 28 +/-2 degC after 7 days by food poison technique. As to conditions: 168 h, read-out: GI.
Assay [7] deals with Fusarium oxysporum. Briefly: Antifungal activity against Fusarium oxysporum assessed as mycelial growth inhibition at 1000 ppm at 28 +/-2 degC after 7 days by food poison technique. The note with it: 168 h, read-out: GI.
For assay [8], the system named is Curvularia pallescens. Briefly: Antifungal activity against Cochliobolus pallescens assessed as mycelial growth inhibition at 100 ppm at 28 +/-2 degC after 7 days by food poison technique. The note with it: 168 h, read-out: GI.
The test system of assay [9] is Colletotrichum falcatum. Briefly: Antifungal activity against Glomerella tucumanensis assessed as mycelial growth inhibition at 100 ppm at 28 +/-2 degC after 7 days by food poison technique. As to conditions: 168 h, read-out: GI.
Assay [10] relates to Fusarium oxysporum. Briefly: Antifungal activity against Fusarium oxysporum assessed as mycelial growth inhibition at 28 +/-2 degC after 7 days by food poison technique. The note with it: 168 h.
Assay [11] has as its system Fusarium oxysporum. In words: Ratio of mancozeb MIC to compound MIC for Fusarium oxysporum after 7 days by food poison technique.
Assay [12] has as its system Colletotrichum falcatum. In words: Antifungal activity against Glomerella tucumanensis assessed as mycelial growth inhibition at 28 +/-2 degC after 7 days by food poison technique. As to conditions: 168 h.
The test system of assay [13] is Curvularia pallescens. Briefly: Ratio of copper oxychloride MIC to compound MIC for Cochliobolus pallescens after 7 days by food poison technique.
Assay [14] concerns Curvularia pallescens. In words: Ratio of thiophanate MIC to compound MIC for Cochliobolus pallescens after 7 days by food poison technique.
For assay [15], the system named is Fusarium oxysporum. Briefly: Ratio of carbendazim MIC to compound MIC for Fusarium oxysporum after 7 days by food poison technique.
In assay [16] the test system is Colletotrichum falcatum. In words: Ratio of copper oxychloride MIC to compound MIC for Glomerella tucumanensis after 7 days by food poison technique.
The test system of assay [17] is Fusarium oxysporum. Briefly: Ratio of copper oxychloride MIC to compound MIC for Fusarium oxysporum after 7 days by food poison technique.
For assay [18], the system named is Colletotrichum falcatum. In words: Ratio of carbendazim MIC to compound MIC for Glomerella tucumanensis after 7 days by food poison technique.
In assay [19] the test system is Colletotrichum falcatum. In words: Ratio of thiophanate MIC to compound MIC for Glomerella tucumanensis after 7 days by food poison technique.
Assay [20] concerns Fusarium oxysporum. Briefly: Ratio of thiophanate MIC to compound MIC for Fusarium oxysporum after 7 days by food poison technique.
In assay [21] the test system is Curvularia pallescens. In words: Ratio of mancozeb MIC to compound MIC for Cochliobolus pallescens after 7 days by food poison technique.
Assay [22] concerns Colletotrichum falcatum. Briefly: Ratio of mancozeb MIC to compound MIC for Glomerella tucumanensis after 7 days by food poison technique.
For assay [23], the system named is Curvularia pallescens. In words: Antifungal activity against Cochliobolus pallescens assessed as mycelial growth inhibition at 28 +/-2 degC after 7 days by food poison technique. As to conditions: 168 h.
Assay [24] relates to Curvularia pallescens. In words: Ratio of carbendazim MIC to compound MIC for Cochliobolus pallescens after 7 days by food poison technique.

Take `CCOP(=O)(OCC)O/C(=N\N=C1/C(=O)Nc2ccccc21)c1ccccc1`: the inhibition of growth at 10 ppm came to 40.4% with Curvularia pallescens [1], 41.2% with Fusarium oxysporum [2] and 40.3% in the assay with Colletotrichum falcatum [5]. In addition, the inhibition of growth at 1000 ppm came out at 59.8% in the assay with Curvularia pallescens [3], 60.8% with Colletotrichum falcatum [6] and 61.8% in the assay on Fusarium oxysporum [7]. Further, the inhibition of growth at 100 ppm with Fusarium oxysporum [4] was 50.4%; in the assay with Curvularia pallescens [8] it was 49.2%; in the assay on Colletotrichum falcatum [9], 49.4%.

Usually MIC stands for the lowest concentration that inhibits growth of the organism. Turning to `CCOP(=S)(OCC)O/C(COc1ccc(Cl)cc1)=N\N=C1/C(=O)Nc2ccccc21`, the MIC in the assay with Fusarium oxysporum [10], in the assay with Colletotrichum falcatum [12] and in the assay with Curvularia pallescens [23] was 1000 µg/mL (≈ 2.08 mM) each time. In addition, the inhibition of growth at 10 ppm was determined as 78.2% with Curvularia pallescens [1], 80% in the assay on Fusarium oxysporum [2] and 80.5% in the assay on Colletotrichum falcatum [5]. Besides, the Ratio in the assay on Fusarium oxysporum [11], with Curvularia pallescens [13], in the assay with Curvularia pallescens [14], in the assay with Fusarium oxysporum [15], in the assay on Colletotrichum falcatum [16] and in the assay on Fusarium oxysporum [17] was 2 each time. Moreover, the Ratio in the assay with Colletotrichum falcatum [18], with Colletotrichum falcatum [19], in the assay on Fusarium oxysporum [20], with Curvularia pallescens [21], in the assay on Colletotrichum falcatum [22] and with Curvularia pallescens [24] was 2 throughout. Further, the inhibition of growth at 1000 ppm in the assay on Curvularia pallescens [3], with Colletotrichum falcatum [6] and with Fusarium oxysporum [7] was 100% each time. Also, the results for the inhibition of growth at 100 ppm in the assay on Fusarium oxysporum [4], in the assay with Curvularia pallescens [8] and in the assay with Colletotrichum falcatum [9] were 89.2%, 84.8% and 90.2%, respectively.

Take `CCOP(=S)(OCC)O/C(COc1ccc(OP(=S)(OCC)OCC)cc1)=N\N=C1/C(=O)Nc2ccccc21`: the MIC in the assay on Fusarium oxysporum [10], in the assay on Colletotrichum falcatum [12] and with Curvularia pallescens [23] was 1000 µg/mL (≈ 1.62 mM) each time. Further, the inhibition of growth at 10 ppm in the assay with Curvularia pallescens [1] is 68.6%; in the assay with Fusarium oxysporum [2] it was 70.2%; in the assay on Colletotrichum falcatum [5] it was 75.1%. Moreover, the Ratio in the assay on Fusarium oxysporum [11], in the assay with Curvularia pallescens [13], in the assay on Curvularia pallescens [14], in the assay with Fusarium oxysporum [15], in the assay with Colletotrichum falcatum [16] and in the assay with Fusarium oxysporum [17] was 2 throughout. Further, the Ratio with Colletotrichum falcatum [18], in the assay with Colletotrichum falcatum [19], in the assay with Fusarium oxysporum [20], in the assay with Curvularia pallescens [21], in the assay with Colletotrichum falcatum [22] and in the assay with Curvularia pallescens [24] was 2 each time. The inhibition of growth at 1000 ppm with Curvularia pallescens [3], with Colletotrichum falcatum [6] and in the assay on Fusarium oxysporum [7] was 100% throughout. In addition, the inhibition of growth at 100 ppm in the assay on Fusarium oxysporum [4] was determined as 82.6%; with Curvularia pallescens [8], 80.5%; in the assay on Colletotrichum falcatum [9] it was 86.2%.

In the case of `COC(=O)Nc1nc2ccccc2[nH]1` [CARBENDAZIM], the MIC with Fusarium oxysporum [10] was 3000 µg/mL (≈ 15.7 mM); with Colletotrichum falcatum [12], 4000 µg/mL (≈ 20.9 mM); with Curvularia pallescens [23], 4000 µg/mL (≈ 20.9 mM).

With `COC(=O)NC(=S)Nc1ccccc1NC(=S)NC(=O)OC` [THIOPHANATE METHYL], the MIC in the assay on Fusarium oxysporum [10], in the assay with Colletotrichum falcatum [12] and in the assay with Curvularia pallescens [23] was 4000 µg/mL (≈ 11.7 mM) throughout.
